Experimental data reported in patent US9258995B2, “Organ cold storage composition and methods of use” (BOARD OF TRUSTEES OF THE UNIVERSITY OF ARKANSAS, priority 2009, dated 2016).

Key:
[1] = system: NRK cells; conditions: 24 h CS of NRK cells; cited from earlier work
[2] = system: rat kidneys; test: Periodic acid-Schiff morphological assessment of renal injury during CS; conditions: 4 h CS, 100 μM
Protocol: (§1) All animals were treated according to the National Institutes of Health Guide for the Care and Use of Laboratory Animals and the University of Arkansas for Medical Sciences Institutional Animal Care and Use Committee guidelines. Male Fischer 344 inbred rats (Charles Rivers Laboratories, Inc., Wilmington, Mass.) weighing between 250 and 300 g were anesthetized with ethrane, followed by shaving and prepping with betadine. […] Bulldog clamps were placed on the aorta and vena cava (proximal and distal to the renal vessels) to prevent blood flow to the kidneys. A 22-gauge surgical needle was used to puncture the rat's aorta to flush the renal grafts with saline (10 ml per kidney) using a small catheter. Once the kidneys started to turn light brown (perfusion), another vent was formed in the vena cava to allow blood flow from the kidneys. Once both kidneys were completely flushed, the right kidney was recovered and served as a control (group 1), and the left kidney was exposed to CS alone for 4 h at 4° C. […]
Renal sections were assessed for tissue injury using the periodic acid-Schiff reaction. […] Morphological evaluation of tubular dilation, brush border loss, and cellular debris/tubular cast formation were performed blindly with light microscopy and assessed semiquantitatively according to the following scoring system: 0, no changes; 1, mild changes; 2, moderate changes, and 3, severe changes.

[3] = system: NRK cells; test: Nitrotyrosine immunocytochemistry during CS; format: cell-based, rat; conditions: 4 h CS, 1 μM
Protocol: (§2) Normal rat kidney proximal tubular cells (NRK-52E; American Type Culture Collection, Manassas, Va.) were maintained in six-well 100 or 150-mm, or 150-mm plates in a humidified incubator gassed with 5% CO2 and 95% air at 37° C. in DMEM (Invitrogen, Carlsbad, Calif.) containing 5% fetal calf serum (FCS). Cells were grown to 60% confluence and divided into four treatment groups: 1) untreated (Untx), 2) CS, 3) CS+MitoQ, and 4) CS+DecylTPP. Untreated cells remained at 37° C. in DMEM containing 5% FCS (group 1). CS was initiated by washing cells with cold PBS (Invitrogen) twice and storing them in UW/Viaspan solution alone (4 h at 4° C.) (group 2), CS+MitoQ (1 μM) (group 3), or CS+DecylTPP (1 μM) (group 4). In separate experiments, cells were exposed to CS plus RW by replacing UW solution alone or UW solution containing MitoQ or DecylTPP with DMEM containing 5% FCS overnight (18 h at 37° C.).
(§3) NRK cells (groups 1-4) were assessed for nitrotyrosine formation as previously described. […] Nitrotyrosine staining was evaluated and captured with equal exposure times using a Nikon Eclipse 800 microscope (40×oil). Images were quantified by averaging the mean intensity fluorescence of five random cells in three different fields using Nikon N is Elements software. Renal tissue sections were assessed for the presence of nitrotyrosine protein adducts by nitrotyrosine immunohistochemistry. […]

[4] = system: mitochondrial respiratory complex I; test: Mitochondrial respiratory complex activity, NRK cell mitochondria after CS; format: cell-based, rat; conditions: NRK cells, 4-h CS, 1 μM
Protocol: as §2
(§4) NRK cell and rat kidney mitochondria were isolated by centrifugation on a sucrose density gradient. The activity of mitochondrial respiratory complexes I, II, III, or IV were assayed spectrophotometrically using 100 μg of mitochondrial protein at 30° C. as previously described.

[5] = system: mitochondrial respiratory complex II; test: as above; format: cell-based, rat; conditions: NRK cells, 4-h CS, 1 μM
Protocol: as §2, §4

[6] = system: rat kidneys; test: TUNEL staining of renal cell death during CS; conditions: 4 h CS, 100 μM
Protocol: as §1, with “kidneys.” for “kidneys. Once both kidneys were completely flushed, the right kidney was recovered and served as a control (group 1), and the left kidney was exposed to CS alone for 4 h at 4° C.”
Cell cytotoxicity was determined using the LDH-Cytotoxicity Assay Kit II (Biovision Research Products, Mountain View, Calif.) according to the manufacturer's instructions. Absorbance was measured at 450 nm using a SpectraMax 190 microplate reader and SpectraMax software (Molecular Devices, Sunnyvale, Calif.). Renal cell death was determined using TUNEL staining. […] The amount of cell death was calculated by averaging the number of cells positive for TUNEL (brown staining) in 10 different fields (cortex and medulla) (20×). […]

[7] = system: NRK cells; test: Nitrotyrosine immunocytochemistry, CS plus rewarming; format: cell-based, rat; conditions: 4-h CS plus overnight (18 h) RW, 1 μM added during CS
Protocol: as §2, §3

[8] = system: NRK cells; test: MitoSOX Red mitochondrial superoxide generation, cold storage in vitro model; format: cell-based, rat; conditions: 4 h CS at 4° C. in UW, 1 μM
Protocol: Normal rat kidney proximal tubular cells (NRK-52E; American Type Culture Collection, Manassas, Va.) were maintained in six-well 100 or 150-mm, or 150-mm plates in a humidified incubator gassed with 5% CO2 and 95% air at 37° C. in DMEM (Invitrogen, Carlsbad, Calif.) containing 5% fetal calf serum (FCS). Cells were grown to 60% confluence and divided into four treatment groups: 1) untreated (Untx), 2) CS, 3) CS+MitoQ, and 4) CS+DecylTPP. Untreated cells remained at 37° C. in DMEM containing 5% FCS (group 1). […]
MitoSOX Red (Invitrogen) was used to measure mitochondrial superoxide generation during CS. […] Fluorescence was visualized using an Eclipse E800 microscope (Nikon, Melville, N.Y.) with a rhodamine filter using a water immersion objective (60×). Fluorescent images of NRK cells were captured with equal exposure times and quantified by averaging the mean intensity fluorescence of five random cells in three different fields using Nikon N is Elements software. In separate experiments, cells were grown on coverslips, preloaded with MitoSOX Red before treatment (groups 1-4), and evaluated for mitochondrial superoxide generation using a Hitachi F-2500 spectrofluorometer (Hitachi, Tokyo, Japan) equipped with a coverslip holder using two different excitation wavelengths: 396 and 510 nm with the emission measured at 580 nm as previously described. […]

[9] = system: mitochondrial respiratory complex I; test: Mitochondrial respiratory complex activity, rat kidney mitochondria after CS; conditions: rat kidneys, 4-h CS, 100 μM
Protocol: (§5) All animals were treated according to the National Institutes of Health Guide for the Care and Use of Laboratory Animals and the University of Arkansas for Medical Sciences Institutional Animal Care and Use Committee guidelines. Male Fischer 344 inbred rats (Charles Rivers Laboratories, Inc., Wilmington, Mass.) weighing between 250 and 300 g were anesthetized with ethrane, followed by shaving and prepping with betadine. […] Bulldog clamps were placed on the aorta and vena cava (proximal and distal to the renal vessels) to prevent blood flow to the kidneys. A 22-gauge surgical needle was used to puncture the rat's aorta to flush the renal grafts with saline (10 ml per kidney) using a small catheter. Once the kidneys started to turn light brown (perfusion), another vent was formed in the vena cava to allow blood flow from the kidneys. Once both kidneys were completely flushed, the right kidney was recovered and served as a control (group 1), and the left kidney was exposed to CS alone for 4 h at 4° C. (group 2). In additional experiments, kidneys were flushed with saline through the aorta using a small catheter followed by flushing the right kidney with saline containing MitoQ (100 μM) and the left kidney with saline containing DecylTPP (100 μM) (10 ml per kidney). Tissues were recovered and stored in CS+MitoQ (100 μM; right kidney) or CS+DecylTPP (100 μM; left kidney) for 4 h at 4° C. (groups 3 and 4, respectively). A thin middle section from all of the kidneys were cut and immediately fixed in 10% formalin before being embedded in paraffin for sectioning (4 μm) and histological evaluation. The remaining portion of the kidneys were quickly frozen in liquid nitrogen and stored in −80° C. until needed for biochemistry analyses.
as §4

[10] = system: mitochondrial respiratory complex II; test: as above; conditions: rat kidneys, 4-h CS, 100 μM
Protocol: as §5, §4

[11] = system: rat kidneys; test: MitoSOX Red mitochondrial superoxide generation, cold storage ex vivo model; conditions: rat kidneys, 4 h CS at 4° C., 100 μM
Protocol: as §1, with “C. (group 2). In additional experiments, kidneys were flushed with saline through the aorta using a small catheter followed by flushing the right kidney with saline containing MitoQ (100 μM) and the left kidney with saline containing DecylTPP (100 μM) (10 ml per kidney). Tissues were recovered and stored in CS+MitoQ (100 μM; right kidney) or CS+DecylTPP (100 μM; left kidney) for 4 h at 4° C. (groups 3 and 4, respectively).” for “C.”
MitoSOX Red (Invitrogen) was used to measure mitochondrial superoxide generation during CS. […] Fluorescence was visualized using an Eclipse E800 microscope (Nikon, Melville, N.Y.) with a rhodamine filter using a water immersion objective (60×). Fluorescent images of NRK cells were captured with equal exposure times and quantified by averaging the mean intensity fluorescence of five random cells in three different fields using Nikon N is Elements software. In separate experiments, cells were grown on coverslips, preloaded with MitoSOX Red before treatment (groups 1-4), and evaluated for mitochondrial superoxide generation using a Hitachi F-2500 spectrofluorometer (Hitachi, Tokyo, Japan) equipped with a coverslip holder using two different excitation wavelengths: 396 and 510 nm with the emission measured at 580 nm as previously described. In addition, rat kidneys were monitored for mitochondrial superoxide generation by flushing kidneys with saline through the aorta using a small catheter as described under Cold Storage Ex Vivo Model, followed by saline containing MitoSOX Red (5 μM; 10 ml/kidney) before treatment (groups 1-4). Paraffin sections were analyzed using the rhodamine filter on the Nikon Eclipse 800 microscope (20×).

[12] = system: NRK cells; test: LDH cytotoxicity assay, CS and CS plus rewarming; format: cell-based; conditions: 1 μM
Protocol: as §2
Cell cytotoxicity was determined using the LDH-Cytotoxicity Assay Kit II (Biovision Research Products, Mountain View, Calif.) according to the manufacturer's instructions. Absorbance was measured at 450 nm using a SpectraMax 190 microplate reader and SpectraMax software (Molecular Devices, Sunnyvale, Calif.). Renal cell death was determined using TUNEL staining. Kidney sections were deparaffinized, rehydrated, and exposed to antigen retrieval (20-min incubation at 95° C. with 10 mM sodium citrate buffer, pH 6.0) followed by washing with distilled water and quenching of endogenous peroxidase. Sections were immersed in TdT labeling buffer and then incubated in a humidified chamber with the labeling reaction mix from the TAGS 2 TdT-DAB In Situ Apoptosis Detection kit (Trevigen, Inc., Gaithersburg, Md.) for 1 h at room temperature. The reaction was stopped with TdT stop buffer, and slides were subsequently washed with PBS. Sections were incubated for 10 min with streptavidin-HRP followed by development with diaminobenzidine solution, counterstaining with Mayer's hematoxylin, dehydration, and mounting with Cytoseal-60. The amount of cell death was calculated by averaging the number of cells positive for TUNEL (brown staining) in 10 different fields (cortex and medulla) (20×). All images were taken at equal exposure times (40×oil).

Compound | nitrotyrosine staining (one marker of peroxynitrite) [1] | renal histology / renal injury (periodic acid-Schiff staining) [2] | effect on CS-mediated nitrotyrosine formation [3] | complex I inactivation [4] | complex II inactivation [5] | protection against cell death (TUNEL) [6] | nitrotyrosine staining during CS.RW [7] | CS-induced mitochondrial superoxide generation (MitoSOX Red) [8] | complex I inactivation [9] | complex II inactivation [10] | mitochondrial superoxide generation (MitoSOX Red) [11] | effect on cell death (LDH cytotoxicity) ([12]; CS alone) | effect on cell death (LDH cytotoxicity) ([12]; CS.RW)
CNC(=N)NCCC[C@H](N)C(=O)O.O=C(O)CC(O)(CC(=O)O)C(=O)O [N^5-[imino(methylamino)methyl]-L-ornithine citrate] | inhibited | – | – | – | – | – | – | – | – | – | – | – | –
CCCCCCCCCC[P+](c1ccccc1)(c1ccccc1)c1ccccc1.[Br-] [DecylTPP, decyltriphenylphosphonium bromide, reference compound] | – | did not reverse renal injury | did not decrease | no significant effect | no significant effect | no protective benefits | no effect | did not offer any protection | did not have any effect | did not have any effect | comparable levels of mitochondrial superoxide to kidneys exposed to CS alone | did not reduce | did not reduce
